Data reported in US12312359B2 (Vitae Pharmaceuticals, LLC, priority 2016, dated 2025).

Columns and labels:
[1] = target: T1, biotinylated wild-type menin and MLL-AF9 fusion protein (menin/MLL binding) (Homo sapiens, UniProt O00255); assay: Assay 1: menin/MLL binding AlphaLISA assay, wild-type menin; conditions: Table 30; column head does not say wild-type or mutated menin
T1 construct: made in house; host or cells: menin: E. coli; MLL-AF9-FLAG: HEK293 cells, used as cleared lysate
T1 sequence (O00255 1-610): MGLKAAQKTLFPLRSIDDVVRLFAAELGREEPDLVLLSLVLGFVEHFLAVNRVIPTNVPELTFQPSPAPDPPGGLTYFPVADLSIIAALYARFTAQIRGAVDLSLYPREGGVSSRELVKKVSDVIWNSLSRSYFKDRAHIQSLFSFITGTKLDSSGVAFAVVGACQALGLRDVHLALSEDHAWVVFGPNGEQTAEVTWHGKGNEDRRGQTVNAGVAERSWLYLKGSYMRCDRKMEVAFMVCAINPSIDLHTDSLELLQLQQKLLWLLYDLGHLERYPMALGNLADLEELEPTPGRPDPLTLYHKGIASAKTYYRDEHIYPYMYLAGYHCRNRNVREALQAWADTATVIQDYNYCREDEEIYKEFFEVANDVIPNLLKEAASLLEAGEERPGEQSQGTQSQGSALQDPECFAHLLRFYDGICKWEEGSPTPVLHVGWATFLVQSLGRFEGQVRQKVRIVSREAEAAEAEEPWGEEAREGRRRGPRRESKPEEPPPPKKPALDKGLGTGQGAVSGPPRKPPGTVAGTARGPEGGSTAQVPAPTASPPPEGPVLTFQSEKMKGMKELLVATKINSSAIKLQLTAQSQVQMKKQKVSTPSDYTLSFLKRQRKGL
Outline: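 Compound was preincubated 30 min at room temperature with biotinylated menin (5 nM) and MLL-AF9-FLAG lysate from HEK293 cells, pH 7.4 buffer with 5% DMSO and DTT. Bead-based Alpha signal after 60 min with streptavidin donor and anti-FLAG acceptor beads; four-parameter logistic fit gave IC50.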

[2] = system: human acute monocytic leukemia cell line MV-4-11; assay: Assay 2: cell proliferation assay (ATP quantitation, CellTiter-Glo), MV-4-11; type: cell-based; conditions: Homo sapiens, MV4-11, 72 h, MV-4-11 cells
Outline: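 Read-out is CellTiter-Glo luminescence quantifying ATP. Compound exposure lasted 72 h at 37° C., 5% CO2, with 1.67×10^4 MV-4-11 cells per well in 10% FBS medium, alongside HL-60 toxicity-control cells.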

IC50 [1]	EC50 [2]	SMILES
< 100 nM	≥ 1000 nM	N#Cc1ccc2c(CN3CCC4(CCN(c5ncncc5Oc5ccc(F)cc5OCC5CC5)C4)C3)c[nH]c2c1 (stereo not drawn) [Example 201, 3-((7-(5-(2-(cyclopropylmethoxy)-4-fluorophenoxy)pyrimidin-4-yl)-2,7-diazaspiro[4.4]nonan-2-yl)methyl)-1H-indole-6-carbonitrile]
< 100 nM	100 to 1000 nM	CC(C)N(C)C(=O)c1cc(F)ccc1Oc1cncnc1N1CCC2(CCN(Cc3ccc4c(c3)NC(=O)C4(C)C)C2)C1 (stereo not drawn) [Example 202, 2-((4-(7-((3,3-dimethyl-2-oxoindolin-6-yl)methyl)-2,7-diazaspiro[4.4]nonan-2-yl)pyrimidin-5-yl)oxy)-5-fluoro-N-isopropyl-N-methylbenzamide]
< 100 nM	≥ 1000 nM	N#Cc1ccc(CCN2CC3(C2)CN(c2ncncc2Oc2ccc(F)cc2-c2ccc(C#N)cc2C2CC2)C3)cc1 [Example 203, 2′-((4-(6-(4-cyanophenethyl)-2,6-diazaspiro[3.3]heptan-2-yl)pyrimidin-5-yl)oxy)-2-cyclopropyl-5′-fluoro-[1,1′-biphenyl]-4-carbonitrile]
< 100 nM	100 to 1000 nM	N#Cc1ccc(-c2cc(F)ccc2Oc2cncnc2N2CCC3(CCN(Cc4ccc5c(c4)CC(=O)N5)C3)C2)c(C2CC2)c1 (stereo not drawn) [Example 204, 2-cyclopropyl-5′-fluoro-2′-((4-(7-((2-oxoindolin-5-yl)methyl)-2,7-diazaspiro[4.4]nonan-2-yl)pyrimidin-5-yl)oxy)-[1,1′-biphenyl]-4-carbonitrile]
< 100 nM	< 100 nM	CC1(C)C(=O)Nc2cc(CN3CCC4(CCN(c5ncncc5Oc5ccc(F)cc5-c5ccc(C#N)cc5C5CC5)C4)C3)ccc21 (stereo not drawn) [Example 205, 2-cyclopropyl-2′-((4-(7-((3,3-dimethyl-2-oxoindolin-6-yl)methyl)-2,7-diazaspiro[4.4]nonan-2-yl)pyrimidin-5-yl)oxy)-5′-fluoro-[1,1′-biphenyl]-4-carbonitrile]
< 100 nM	100 to 1000 nM	COC(=O)N(C)c1cc(F)ccc1Oc1cncnc1N1CCC2(CCN(Cc3ccc4[nH]c(=O)[nH]c4c3)C2)C1 (stereo not drawn) [Example 207, methyl (5-fluoro-2-((4-(7-((2-oxo-2,3-dihydro-1H-benzo[d]imidazol-5-yl)methyl)-2,7-diazaspiro[4.4]nonan-2-yl)pyrimidin-5-yl)oxy)phenyl) (methyl)carbamate]
< 100 nM	≥ 1000 nM	O=c1[nH]c2ccc(CN3CCC4(CCN(c5ncncc5Oc5ccc(F)cc5OCc5ccccc5)C4)C3)cc2[nH]1 (stereo not drawn) [Example 208, 5-((7-(5-(2-(benzyloxy)-4-fluorophenoxy)pyrimidin-4-yl)-2,7-diazaspiro [4.4]nonan-2-yl)methyl)-1,3-dihydro-2H-benzo[d]imidazol-2-one]
< 100 nM	100 to 1000 nM	COc1cc(F)ccc1Oc1cncnc1N1CCC2(CCN(Cc3ccc4[nH]c(=O)[nH]c4c3)C2)C1 (stereo not drawn) [Example 209, 5-((7-(5-(4-fluoro-2-methoxyphenoxy)pyrimidin-4-yl)-2,7-diazaspiro[4.4]nonan-2-yl)methyl)-1,3-dihydro-2H-benzo[d]imidazol-2-one]
< 100 nM	100 to 1000 nM	CC(C)N(C)C(=O)c1cc(F)ccc1Oc1cncnc1N1CCC2(CCN(Cc3ccc4c(c3)NC(=O)CO4)C2)C1 (stereo not drawn) [Example 210, 5-fluoro-N-isopropyl-N-methyl-2-((4-(7-((3-oxo-3,4-dihydro-2H-benzo[b][1,4]oxazin-6-yl)methyl)-2,7-diazaspiro[4.4]nonan-2-yl)pyrimidin-5-yl)oxy)benzamide]
< 100 nM	100 to 1000 nM	CC1CCCN1C(=O)c1cc(F)ccc1Oc1cncnc1N1CCC2(CCN(Cc3ccc4[nH]c(=O)[nH]c4c3)C2)C1 (stereo not drawn) [Example 211, 5-((7-(5-(4-fluoro-2-(2-methylpyrrolidine-1-carbonyl)phenoxy)pyrimidin-4-yl)-2,7-diazaspiro[4.4]nonan-2-yl)methyl)-1,3-dihydro-2H-benzo [d]imidazol-2-one]
< 100 nM	< 100 nM	CC(F)(F)c1ccccc1-c1cc(F)ccc1Oc1cncnc1N1CCC2(CCN(Cc3ccc4[nH]c(=O)[nH]c4c3)C2)C1 (stereo not drawn) [Example 213, 5-((7-(5-((2′-(1,1-difluoroethyl)-5-fluoro-[1,1′-biphenyl]-2-yl)oxy)pyrimidin-4-yl)-2,7-diazaspiro[4.4]nonan-2-yl)methyl)-1,3-dihydro-2H-benzo[d]imidazol-2-one]
< 100 nM	100 to 1000 nM	N#Cc1ccc(-c2cc(F)ccc2Oc2cncnc2N2CC3(CN(CC4(O)CCOCC4)C3)C2)c(C2CC2)c1 [Example 214, 2-cyclopropyl-5′-fluoro-2′-((4-(6-((4-hydroxytetrahydro-2H-pyran-4-yl)methyl)-2,6-diazaspiro[3.3]heptan-2-yl)pyrimidin-5-yl)oxy)-[1,1′-biphenyl]-4-carbonitrile]
< 100 nM	100 to 1000 nM	N#Cc1ccc(-c2cc(F)ccc2Oc2cncnc2N2CC3(CN(CC4CCOCC4)C3)C2)c(C2CC2)c1 [Example 215, 2-cyclopropyl-5′-fluoro-2′-((4-(6-((tetrahydro-2H-pyran-4-yl)methyl)-2,6-diazaspiro[3.3]heptan-2-yl)pyrimidin-5-yl)oxy)-[1,1′-biphenyl]-4-carbonitrile]
< 100 nM	< 100 nM	CC(C)n1nc(C(F)(F)F)cc1-c1cc(F)ccc1Oc1cncnc1N1CCC2(CCN(Cc3ccc4[nH]c(=O)[nH]c4c3)C2)C1 (stereo not drawn) [Example 217, 5-((7-(5-(4-fluoro-2-(1-isopropyl-3-(trifluoromethyl)-1H-pyrazol-5-yl)phenoxy)pyrimidin-4-yl)-2,7-diazaspiro[4.4]nonan-2-yl)methyl)-1,3-dihydro-2H-benzo[d]imidazol-2-one]
< 100 nM	≥ 1000 nM	CC(C)C1CCC(=O)N1c1cc(F)ccc1Oc1cncnc1N1CCC2(CCN(Cc3ccc4[nH]c(=O)[nH]c4c3)C2)C1 (stereo not drawn) [Example 218, 5-((7-(5-(4-fluoro-2-(2-isopropyl-5-oxopyrrolidin-1-yl)phenoxy)pyrimidin-4-yl)-2,7-diazaspiro[4.4]nonan-2-yl)methyl)-1,3-dihydro-2H-benzo[d]imidazol-2-one]
< 100 nM	100 to 1000 nM	CC(C)c1ccccc1-c1cc(F)ccc1Oc1cncnc1N1CCC2(CCN(C[C@H]3CC[C@H](N)CC3)C2)C1 (stereo partly drawn) [Example 219, (1r,4r)-4-((7-(5-((5-fluoro-2′-isopropyl-[1,1′-biphenyl]-2-yl)oxy)pyrimidin-4-yl)-2,7-diazaspiro[4.4]nonan-2-yl)methyl)cyclo-hexan-1-amine]
< 100 nM	100 to 1000 nM	CC(C)c1ccccc1-c1cc(F)ccc1Oc1cncnc1N1CCC2(CCN(C[C@H]3CC[C@H](NC(=O)OC(C)(C)C)CC3)C2)C1 (stereo partly drawn) [Example 220, tert-butyl ((1r,4r)-4-((7-(5-((5-fluoro-2′-isopropyl-[1,1′-biphenyl]-2-yl)oxy)pyrimidin-4-yl)-2,7-diazaspiro[4.4]nonan-2-yl)methyl)cyclohexyl) carbamate]
< 100 nM	100 to 1000 nM	CC(=O)Nc1ccc(CN2CCC3(CCN(c4ncncc4Oc4ccc(F)cc4-c4ccccc4C(C)C)C3)C2)cc1 (stereo not drawn) [Example 221, N-(4-((7-(5-((5-fluoro-2′-isopropyl-[1,1′-biphenyl]-2-yl)oxy)pyrimidin-4-yl)-2,7-diazaspiro[4.4]nonan-2-yl)methyl)phenyl) acetamide]
< 100 nM	≥ 1000 nM	CC(C)N(C)S(=O)(=O)c1cc(F)ccc1Oc1cncnc1N1CCC2(CCN(Cc3ccc4[nH]c(=O)[nH]c4c3)C2)C1 (stereo not drawn) [Example 222, 5-fluoro-N-isopropyl-N-methyl-2-((4-(7-((2-oxo-2,3-dihydro-1H-benzo[d]imidazol-5-yl)methyl)-2,7-diazaspiro[4.4]nonan-2-yl)pyrimidin-5-yl)oxy)benzenesulfon-amide]
< 100 nM	100 to 1000 nM	CCOC(=O)c1ccccc1-c1cc(F)ccc1Oc1cncnc1N1CCC2(CCN(Cc3ccc4[nH]c(=O)[nH]c4c3)C2)C1 (stereo not drawn) [Example 223, ethyl 5′-fluoro-2′-((4-(7-((2-oxo-2,3-dihydro-1H-benzo[d]imidazol-5-yl)methyl)-2,7-diazaspiro[4.4]nonan-2-yl)pyrimidin-5-yl)oxy)-[1,1′-biphenyl]-2-carboxylate]

SMILES	IC50 [1]	EC50 [2]
O=C(c1cc(F)ccc1Oc1cncnc1N1CCC2(CCN(Cc3ccc4[nH]c(=O)[nH]c4c3)C2)C1)N1C2CCC1CC2 (stereo not drawn) [Example 212, 5-((7-(5-(2-((1s,4s)-7-azabicyclo[2.2.1]heptane-7-carbonyl)-4-fluorophenoxy)pyrimidin-4-yl)-2,7-diazaspiro [4.4]nonan-2-yl)methyl)-1,3-dihydro-2H-benzo[d]imidazol-2-one]	< 100 nM	100 to 1000 nM
